Experimental data from article PMC3057164, “Caffeoylquinic Acids Are Major Constituents with Potent Anti-Influenza Effects in Brazilian Green Propolis Water Extract” (Evidence-based Complementary and Alternative Medicine : eCAM, 2011).
Like-named read-outs stand apart in the source and are kept apart here.

Legend:
[1] = system: influenza A virus strain A/WSN/33 (H1N1); experiment: microbe, parasite or virus in culture; type: cell-based; conditions: for EC50: Influenza A virus, MDCK, 48 h
MDCK cells = experiment: Cytotoxicity assay (WST-8) with no viral infection; conditions: 300 μg/mL, uninfected MDCK cells, Figure 3
influenza virus = type: cell-based; conditions: 5 μg/mL, influenza virus-infected MDCK cells, data not shown

| SMILES | Effect on cell survival rate of virus-infected cells (effective / ineffective) [1] | EC50 [1] [µM] | also measured |
| --- | --- | --- | --- |
| O=C(O)[C@]1(O)C[C@@H](O)[C@@H](O)[C@H](O)C1 [Quinic acid, quinic acid] | ineffective | > 1560 |  |
| CC(C)=CCc1cc(/C=C/C(=O)O)ccc1O [drupanin] | did not have any cell surviving activity |  |  |
| O=C(O)/C=C/c1ccc(O)c(O)c1 [Caffeic acid, caffeic acid] | effective | 191 | Cell survival rate of infected cells at 300 μg/mL [1]: dropped to nearly zero; Effect on cell survival of infected cells at 100 μg/mL [1]: effective; Cell toxicity (MDCK cells): exhibited cell toxicities |
| NC(=O)c1ncn([C@@H]2O[C@H](CO)[C@@H](O)[C@H]2O)n1 [ribavirin] |  |  | Quantity of mRNA for HA relative to mRNA for GAPDH (influenza virus): less than 10% |
| O=C(/C=C/c1ccc(O)c(O)c1)O[C@@H]1[C@H](O)C[C@@](O)(C(=O)O)C[C@H]1OC(=O)/C=C/c1ccc(O)c(O)c1 [3,4-Dicaffeoylquinic acid] | effective | 81.1 ± 2.9 | EC50 ([1]; read-out: EC50 value on the cell survival): 41.9 µg/mL |
| O=C(/C=C/c1ccc(O)c(O)c1)O[C@@H]1C[C@](O)(C(=O)O)C[C@@H](OC(=O)/C=C/c2ccc(O)c(O)c2)[C@H]1OC(=O)/C=C/c1ccc(O)c(O)c1 [3,4,5-Tricaffeoylquinic acid, 3,4,5-tricaffeoylquinic acid] | effective | 115 | Cell survival rate of infected cells at 300 μg/mL [1]: dropped to nearly zero; Effect on cell survival of infected cells at 100 μg/mL [1]: effective |
| O=C(/C=C/c1ccc(O)c(O)c1)O[C@@H]1C[C@](O)(C(=O)O)C[C@@H](OC(=O)/C=C/c2ccc(O)c(O)c2)[C@H]1O [3,5-Dicaffeoylquinic acid, 3,5-dicaffeoylquinic acid] | effective | 208 |  |
| O=C(/C=C/c1ccc(O)c(O)c1)O[C@H]1[C@H](O)C[C@](O)(C(=O)O)C[C@H]1OC(=O)/C=C/c1ccc(O)c(O)c1 [4,5-Dicaffeoylquinic acid, 4,5-dicaffeoylquinic acid] | effective | 281 |  |
| CC(C)=CCc1cc(/C=C/C(=O)O)cc(CC=C(C)C)c1O [artepillin C] | did not have any cell surviving activity |  |  |
| O=C(/C=C/c1ccc(O)c(O)c1)O[C@@H]1C[C@](O)(C(=O)O)C[C@@H](O)[C@H]1O [Chlorogenic acid] | effective | 342 | Cell survival rate of infected cells at 300 μg/mL [1]: dropped to nearly zero; Effect on cell survival of infected cells at 100 μg/mL [1]: effective; Cell toxicity (MDCK cells): exhibited cell toxicities |
| COc1ccc(-c2oc3cc(O)cc(O)c3c(=O)c2O)cc1 [kemferide] | did not have any cell surviving activity |  |  |
| O=C(O)/C=C/c1ccc(O)cc1 [p-coumaric acid] | did not have any cell surviving activity |  |  |
